These results are taken from patent publication US9149476B2, “Thiochromene derivatives as HIF hydroxylase inhibitors” (FibroGen, Inc., priority 2008, dated 2015).

The target of one assay is T1, HIF-PH2 (EGLN1) (Homo sapiens, UniProt Q9GZT9).
T1 construct: made in house; host or cells: insect Hi5 cells
T1 sequence (Q9GZT9 whole entry): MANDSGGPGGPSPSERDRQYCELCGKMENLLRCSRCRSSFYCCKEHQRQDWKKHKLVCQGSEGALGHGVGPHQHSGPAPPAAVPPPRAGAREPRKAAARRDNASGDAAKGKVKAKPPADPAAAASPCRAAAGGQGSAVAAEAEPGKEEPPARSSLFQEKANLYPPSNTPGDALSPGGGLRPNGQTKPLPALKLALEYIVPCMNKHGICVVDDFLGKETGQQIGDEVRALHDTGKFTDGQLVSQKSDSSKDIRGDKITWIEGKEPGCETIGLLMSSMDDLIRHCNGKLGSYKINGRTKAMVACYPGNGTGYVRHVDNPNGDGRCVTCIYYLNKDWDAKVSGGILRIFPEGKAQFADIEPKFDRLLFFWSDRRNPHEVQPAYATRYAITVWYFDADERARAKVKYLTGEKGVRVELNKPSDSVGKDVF
In words: HIF-PH assay (14CO2 capture, peptide-dependent turnover). The assay is classed as biochemical. The following applies: compound concentration 7.4 μM. The text has this:
Ketoglutaric acid α-[1-^14C]-sodium salt, alpha-ketoglutaric acid sodium salt, and HPLC purified peptide may be obtained from commercial sources, e.g., Perkin-Elmer (Wellesley Mass.), Sigma-Aldrich, and SynPep Corp. (Dublin Calif.), respectively. Peptides for use in the assay may be fragments of HIFα as described above or as disclosed in International Publication WO 2005/118836, incorporated by reference herein. For example, a HIF peptide for use in the HIF-PH assay is [methoxycoumarin]-DLDLEALAPYIPADDDFQL-amide (SEQ ID NO:2). HIF-PH, e.g., HIF-PH2 (EGLN1), can be expressed in, e.g., insect Hi5 cells, and partially purified, e.g., through a SP ion exchange chromatography column. Enzyme activity is determined by capturing ^14CO2 using an assay described by Kivirikko and Myllyla (1982, Methods Enzymol. 82:245-304). Assay reactions contain 50 mM HEPES (pH 7.4), 100 μM α-ketoglutaric acid sodium salt, 0.30 μCi/mL ketoglutaric acid α-[1-^14C]-sodium salt, 40 μM FeSO4, 1 mM ascorbate, 1541.8 units/mL Catalase, with or without 50 μM peptide substrate and various concentrations of compound of the invention. Reactions are initiated by addition of HIF-PH enzyme.
The peptide-dependent percent turnover is calculated by subtracting percent turnover in the absence of peptide from percent turnover in the presence of substrate peptide. Percent inhibition and IC50 are calculated using peptide-dependent percent turnover at given inhibitor concentrations. Calculation of IC50 values for each inhibitor is conducted using GraFit software (Erithacus Software Ltd., Surrey UK).
Representative compounds of the invention were analyzed using the HIF-PH assay described above. Table 1 presents enzyme inhibition data for exemplary compounds against HIF-PH2, a representative HIF prolyl hydroxylase. By inhibiting HIF prolyl hydroxylase, compounds of the invention stabilize HIFα, which then combines with HIFβ to form an active transcription factor that increases expression of various genes involved in numerous beneficial cellular processes.
For the molecule `O=C(O)CNC(=O)c1c(O)c2cc(Cl)cc(C#Cc3ccccc3)c2sc1=O` [Example 56, [(6-Chloro-4-hydroxy-2-oxo-8-phenylethynyl-2H-thiochromene-3-carbonyl)-amino]-acetic acid], testing at 7.4 µM gave an inhibition of 99.7%.

On to `C[C@H](NC(=O)c1c(O)c2ccccc2sc1=O)C(=O)O` [Example 57, 2-(S)-[(4-Hydroxy-2-oxo-2H-thiochromene-3-carbonyl)-amino]-propionic acid], for which the inhibition (as a rule, the drop in the measured response relative to a control, in per cent) at 7.4 µM came to 98.4%.

In turn, `O=C(O)CNC(=O)c1c(O)c2cc(Cl)ccc2sc1=O` [Example 58, [(6-Chloro-4-hydroxy-2-oxo-2H-thiochromene-3-carbonyl)-amino]-acetic acid] returned an inhibition at 7.4 µM of 96.8%.

Staying with this assay, now noted: compound concentration 50 μM.
For `O=C(O)CNC(=O)c1c(O)c2cc(-c3ccc(OC(F)(F)F)cc3)ccc2sc1=O` [Example 40, {[4-Hydroxy-2-oxo-6-(4-trifluoromethoxy-phenyl)-2H-thiochromene-3-carbonyl]-amino}-acetic acid], the inhibition at 50 µM was determined as 94.8%.

As for `O=C(O)CNC(=O)c1c(O)c2cc(NC(=O)c3ccccc3)ccc2sc1=O` [Example 41, [(6-Benzoylamino-4-hydroxy-2-oxo-2H-thiochromene-3-carbonyl)-amino]-acetic acid], the inhibition at 50 µM turned out to be 100%.

`O=C(O)CNC(=O)c1c(O)c2cc(Cl)cc(Cc3ccccc3)c2sc1=O` [Example 42, [(8-Benzyl-6-chloro-4-hydroxy-2-oxo-2H-thiochromene-3-carbonyl)-amino]-acetic acid] showed an inhibition at 50 µM of 100%.

Molecule `O=C(O)CNC(=O)c1c(O)c2cc(Cl)cc(-c3cc(C(F)(F)F)cc(C(F)(F)F)c3)c2sc1=O` [Example 43, {[8-(3,5-Bis-trifluoromethyl-phenyl)-6-chloro-4-hydroxy-2-oxo-2H-thiochromene-3-carbonyl]-amino}-acetic acid] had an inhibition at 50 µM of 100%.

`O=C(O)CNC(=O)c1c(O)c2cc(Cl)cc(-c3ccccc3)c2sc1=O` [Example 44, [(6-Chloro-4-hydroxy-2-oxo-8-phenyl-2H-thiochromene-3-carbonyl)-amino]-acetic acid] came in with an inhibition at 50 µM of 100%.

In the case of `Cn1nc(C(F)(F)F)cc1-c1cc(Cl)cc2c(O)c(C(=O)NCC(=O)O)c(=O)sc12` [Example 45, {[6-Chloro-4-hydroxy-8-(2-methyl-5-trifluoromethyl-2H-pyrazol-3-yl)-2-oxo-2H-thiochromene-3-carbonyl]-amino}-acetic acid], 50 µM produced 100% inhibition.

Molecule `O=C(O)CNC(=O)c1c(O)c2cc(Cl)cc(-c3cccnc3)c2sc1=O` [Example 46, [(6-Chloro-4-hydroxy-2-oxo-8-pyridin-3-yl-2H-thiochromene-3-carbonyl)-amino]-acetic acid] registered an inhibition at 50 µM of 100%.

The molecule `O=C(O)CNC(=O)c1c(O)c2cccc(Cc3ccccc3)c2sc1=O` [Example 47, [(8-Benzyl-4-hydroxy-2-oxo-2H-thiochromene-3-carbonyl)-amino]-acetic acid] gave an inhibition at 50 µM of 100%.

Molecule `O=C(O)CNC(=O)c1c(O)c2cccc(-c3cc(C(F)(F)F)cc(C(F)(F)F)c3)c2sc1=O` [Example 48, {[8-(3,5-Bis-trifluoromethyl-phenyl)-4-hydroxy-2-oxo-2H-thiochromene-3-carbonyl]-amino}-acetic acid] came in with an inhibition at 50 µM of 100%.

In turn, `Cn1nc(C(F)(F)F)cc1-c1cccc2c(O)c(C(=O)NCC(=O)O)c(=O)sc12` [Example 49, {[4-Hydroxy-8-(2-methyl-5-trifluoromethyl-2H-pyrazol-3-yl)-2-oxo-2H-thiochromene-3-carbonyl]-amino}-acetic acid] yielded an inhibition at 50 µM of 100%.

As to `O=C(O)CNC(=O)c1c(O)c2cccc(-c3cccnc3)c2sc1=O` [Example 50, [(4-Hydroxy-2-oxo-8-pyridin-3-yl-2H-thiochromene-3-carbonyl)-amino]-acetic acid], the inhibition at 50 µM is 98.8%.

As to `O=C(O)CNC(=O)c1c(O)c2cccc(-c3ccccc3)c2sc1=O` [Example 51, [(4-Hydroxy-2-oxo-8-phenyl-2H-thiochromene-3-carbonyl)-amino]-acetic acid], the inhibition at 50 µM amounted to 98.8%.

Regarding `O=C(O)CNC(=O)c1c(O)c2c(F)cccc2sc1=O` [Example 52, [(5-Fluoro-4-hydroxy-2-oxo-2H-thiochromene-3-carbonyl)-amino]-acetic acid], the inhibition at 50 µM was found to be 98.5%.

As to `O=C(O)CNC(=O)c1c(O)c2ccc(C3CC3)cc2sc1=O` [Example 53, [(7-Cyclopropyl-4-hydroxy-2-oxo-2H-thiochromene-3-carbonyl)-amino]-acetic acid], the inhibition at 50 µM was 99%.

For `Cn1nc(C(F)(F)F)cc1-c1ccc2c(O)c(C(=O)NCC(=O)O)c(=O)sc2c1` [Example 54, {[4-Hydroxy-7-(2-methyl-5-trifluoromethyl-2H-pyrazol-3-yl)-2-oxo-2H-thiochromene-3-carbonyl]-amino}-acetic acid], the inhibition at 50 µM was 98.6%.

Molecule `C[C@H](NC(=O)c1c(O)c2ccc(-c3cc(C(F)(F)F)nn3C)cc2sc1=O)C(=O)O` [Example 55, 2-(S)-{[4-Hydroxy-7-(2-methyl-5-trifluoromethyl-2H-pyrazol-3-yl)-2-oxo-2H-thiochromene-3-carbonyl]-amino}-propionic acid] returned an inhibition at 50 µM of 94.5%.

Turning to `C[C@H](NC(=O)c1c(O)c2cc(Cl)ccc2sc1=O)C(=O)O` [Example 59, 2-(S)-[(6-Chloro-4-hydroxy-2-oxo-2H-thiochromene-3-carbonyl)-amino]-propionic acid], the inhibition at 50 µM amounted to 95.6%.

As for `O=C(O)CNC(=O)c1c(O)c2ccc(Cl)cc2sc1=O` [Example 60, [(7-Chloro-4-hydroxy-2-oxo-2H-thiochromene-3-carbonyl)-amino]-acetic acid], 50 µM produced 96.5% inhibition.

For `C[C@H](NC(=O)c1c(O)c2ccc(Cl)cc2sc1=O)C(=O)O` [Example 61, 2-(S)-[(7-Chloro-4-hydroxy-2-oxo-2H-thiochromene-3-carbonyl)-amino]-propionic acid], at 50 µM the inhibition was 100%.

`O=C(O)CNC(=O)c1c(O)c2cc(OCc3ccccc3)ccc2sc1=O` [Example 62, [(6-Benzyloxy-4-hydroxy-2-oxo-2H-thiochromene-3-carbonyl)-amino]-acetic acid] registered an inhibition at 50 µM of 100%.

Molecule `O=C(O)CNC(=O)c1c(O)c2cc(OCC3CCCCC3)ccc2sc1=O` [Example 63, [(6-Cyclohexylmethoxy-4-hydroxy-2-oxo-2H-thiochromene-3-carbonyl)-amino]-acetic acid] registered an inhibition at 50 µM of 98.9%.

The same assay, now with this note: compound concentration 67 μM.
Turning to `O=C(O)CNC(=O)c1c(O)c2cc(-c3ccc(F)cc3)ccc2sc1=O` [Example 38, {[6-(4-Fluoro-phenyl)-4-hydroxy-2-oxo-2H-thiochromene-3-carbonyl]-amino}-acetic acid], the inhibition at 67 µM is 96.6%.

The molecule `COc1ccccc1-c1ccc2sc(=O)c(C(=O)NCC(=O)O)c(O)c2c1` [Example 39, {[4-Hydroxy-6-(2-methoxy-phenyl)-2-oxo-2H-thiochromene-3-carbonyl]-amino}-acetic acid] came in with an inhibition at 67 µM of 94.7%.

Still in this assay, the particulars now being: compound concentration 200 μM.
As for `CCCCCCOc1ccc2sc(=O)c(C(=O)NCC(=O)O)c(O)c2c1` [Example 64, [(6-Hexyloxy-4-hydroxy-2-oxo-2H-thiochromene-3-carbonyl)-amino]-acetic acid], the inhibition at 200 µM worked out at 100%.
